In ChEMBL document CHEMBL1134658 (J Med Chem, 2001):

Legend:
[1] = target: Cytochrome P450 2C19 (Homo sapiens, UniProt P33261); test: Inhibitory effect on human recombinant liver cytochrome P450 2C19 expressed in yeast strain
[2] = target: T1, Cytochrome P450 2C18 (Homo sapiens, UniProt P33260); test: Inhibitory effect on human recombinant liver cytochrome P450 2C18 expressed in yeast strain
T1 sequence (P33260 whole entry): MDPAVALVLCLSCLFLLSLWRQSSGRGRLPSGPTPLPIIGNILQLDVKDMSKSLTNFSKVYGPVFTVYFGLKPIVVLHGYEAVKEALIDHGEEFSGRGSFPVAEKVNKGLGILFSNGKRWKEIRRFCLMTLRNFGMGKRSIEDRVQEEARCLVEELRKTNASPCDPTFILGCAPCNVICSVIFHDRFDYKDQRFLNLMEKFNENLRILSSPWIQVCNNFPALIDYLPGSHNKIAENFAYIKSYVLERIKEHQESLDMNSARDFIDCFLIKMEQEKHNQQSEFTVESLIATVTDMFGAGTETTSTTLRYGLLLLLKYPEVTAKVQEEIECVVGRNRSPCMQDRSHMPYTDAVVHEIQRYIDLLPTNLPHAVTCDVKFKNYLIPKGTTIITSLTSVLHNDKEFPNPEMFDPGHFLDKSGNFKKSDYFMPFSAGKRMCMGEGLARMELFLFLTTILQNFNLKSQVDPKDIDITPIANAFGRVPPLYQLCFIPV

[3] = target: T2, Cytochrome P450 2C8 (Homo sapiens, UniProt P10632); test: Inhibitory effect on human recombinant liver Cytochrome P450 2C8 expressed in yeast strain
T2 sequence (P10632 whole entry): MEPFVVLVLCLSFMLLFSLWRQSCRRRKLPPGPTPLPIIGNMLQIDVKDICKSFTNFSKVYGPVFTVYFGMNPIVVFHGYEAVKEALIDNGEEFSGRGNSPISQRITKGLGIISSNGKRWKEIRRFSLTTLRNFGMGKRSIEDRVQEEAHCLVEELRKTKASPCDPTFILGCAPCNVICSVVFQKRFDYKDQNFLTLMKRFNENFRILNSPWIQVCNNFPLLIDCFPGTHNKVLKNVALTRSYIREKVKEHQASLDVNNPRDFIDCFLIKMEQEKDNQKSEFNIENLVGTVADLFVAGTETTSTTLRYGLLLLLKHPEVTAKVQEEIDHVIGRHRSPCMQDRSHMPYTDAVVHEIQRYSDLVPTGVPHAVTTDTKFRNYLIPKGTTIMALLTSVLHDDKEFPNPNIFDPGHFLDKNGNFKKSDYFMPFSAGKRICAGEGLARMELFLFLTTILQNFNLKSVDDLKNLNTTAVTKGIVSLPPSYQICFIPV

[4] = target: Cytochrome P450 2C9 (Homo sapiens, UniProt P11712); test: Inhibitory effect on human recombinant liver cytochrome P450 2C9 expressed in yeast strain
Chain of Cytochrome P450 2C9 (P11712 whole entry): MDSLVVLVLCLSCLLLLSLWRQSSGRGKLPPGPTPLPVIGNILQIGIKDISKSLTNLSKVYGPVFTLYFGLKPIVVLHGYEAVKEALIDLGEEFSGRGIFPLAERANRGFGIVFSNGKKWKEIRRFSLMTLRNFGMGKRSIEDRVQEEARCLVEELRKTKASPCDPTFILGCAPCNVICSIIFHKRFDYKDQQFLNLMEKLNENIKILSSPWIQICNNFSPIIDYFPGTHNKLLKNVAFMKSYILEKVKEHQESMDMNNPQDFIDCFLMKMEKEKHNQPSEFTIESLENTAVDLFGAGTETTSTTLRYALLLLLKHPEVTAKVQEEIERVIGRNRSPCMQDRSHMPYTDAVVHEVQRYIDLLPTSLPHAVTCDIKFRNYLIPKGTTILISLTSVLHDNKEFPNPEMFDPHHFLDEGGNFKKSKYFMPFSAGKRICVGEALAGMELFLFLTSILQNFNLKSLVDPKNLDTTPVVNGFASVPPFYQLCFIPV

Chain of Cytochrome P450 2C19 (P33261 whole entry): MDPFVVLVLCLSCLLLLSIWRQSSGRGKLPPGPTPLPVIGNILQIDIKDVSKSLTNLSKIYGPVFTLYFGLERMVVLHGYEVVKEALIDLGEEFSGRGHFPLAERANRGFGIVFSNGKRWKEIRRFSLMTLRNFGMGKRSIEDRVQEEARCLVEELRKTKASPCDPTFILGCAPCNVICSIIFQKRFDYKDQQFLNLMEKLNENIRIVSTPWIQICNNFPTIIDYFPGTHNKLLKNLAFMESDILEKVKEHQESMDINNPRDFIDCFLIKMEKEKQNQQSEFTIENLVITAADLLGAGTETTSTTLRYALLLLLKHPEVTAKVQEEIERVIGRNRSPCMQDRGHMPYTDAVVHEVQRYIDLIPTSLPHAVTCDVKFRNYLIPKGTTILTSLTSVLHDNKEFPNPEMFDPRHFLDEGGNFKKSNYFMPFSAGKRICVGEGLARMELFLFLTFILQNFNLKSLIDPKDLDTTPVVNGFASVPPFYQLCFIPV

SMILES	IC50 [1]	IC50 [2]	IC50 [3]	IC50 [4]
CC(C)N(c1ccnn1-c1ccccc1)S(=O)(=O)c1ccc(N)cc1	130 µM	3 µM	30 µM	80 µM
NCCc1ccc(S(=O)(=O)N(CCCO)c2ccnn2-c2ccccc2)cc1		65 µM	> 250 µM	
C=CCc1ccc(S(=O)(=O)Nc2ccnn2-c2ccccc2)cc1	450 µM	150 µM	10 µM	1 µM
CN(c1ccnn1-c1ccccc1)S(=O)(=O)c1ccc(N)cc1	200 µM	15 µM	50 µM	100 µM
O=[N+]([O-])c1cccc(-c2ccc(S(=O)(=O)N(CCCCO)c3ccnn3-c3ccccc3)cc2)c1		4 µM	> 250 µM	
O=[N+]([O-])c1cccc(-c2ccc(S(=O)(=O)N(CCCO)c3ccnn3-c3ccccc3)cc2)c1		8 µM	> 250 µM	
Nc1cccc(-c2ccc(S(=O)(=O)Nc3ccnn3-c3ccccc3)cc2)c1		20 µM	8 µM	
CCCN(c1ccnn1-c1ccccc1)S(=O)(=O)c1ccc(C)cc1	10 µM	20 µM	15 µM	20 µM
Nc1ccc(S(=O)(=O)N(Cc2ccccc2)c2ccnn2-c2ccccc2)cc1	45 µM	7 µM	15 µM	55 µM
Cc1ccc(S(=O)(=O)N(C)c2ccnn2-c2ccccc2)cc1	20 µM	12 µM	180 µM	10 µM
CCN(c1ccnn1-c1ccccc1)S(=O)(=O)c1ccc(N)cc1	225 µM	7 µM	13 µM	90 µM
O=[N+]([O-])c1cccc(-c2ccc(S(=O)(=O)N(CCO)c3ccnn3-c3ccccc3)cc2)c1	165 µM	9 µM	> 250 µM	20 µM
Nc1ccc(S(=O)(=O)Nc2ccnn2-c2ccccc2)cc1 [SULFAPHENAZOLE]		60 µM	130 µM	
CCCN(c1ccnn1-c1ccccc1)S(=O)(=O)c1ccc(N)cc1	250 µM	8 µM	8 µM	55 µM
CCCCN(c1ccnn1-c1ccccc1)S(=O)(=O)c1ccc(N)cc1	60 µM	6 µM	4 µM	50 µM
C=CCc1ccc(S(=O)(=O)N(C)c2ccnn2-c2ccccc2)cc1	20 µM	10 µM	20 µM	> 200 µM
Nc1ccc(S(=O)(=O)N(CCCO)c2ccnn2-c2ccccc2)cc1		30 µM	22 µM	
